Counter-ions that a name gives are not always drawn. Like-named read-outs stand apart in the source and are kept apart here.
Tests used:
[1] = target: His-tagged KRAS G12D protein (Homo sapiens (Human), UniProt P01116, G12D); assay: KRAS G12D TR-FRET Assay; format: binding
Method: Compounds of interest were prepared in a dose-response titration in DMSO, and 80 nL were added via Labcyte Echo to each well of a 384-well plate (Perkin Elmer 6008280). The His-tagged KRAS G12D protein (Amgen) was diluted to 20 nM in Assay Buffer (20 mM HEPES, pH 7.4, 10 mM MgCl2, 50 mM NaCl, 0.1% BSA, 0.01% Tween-20, 10 μM GDP) and 2 μL was added to the appropriate wells of the 384-well plate. The plate was incubated for 30 minutes at room temperature. Biotinylated KRPep-2d substrate (Amgen) was diluted to 20 nM in Assay Buffer and 2 μL was added to all wells and incubated for 1 hour at room temperature. Detection Reagent (0.4 nM LANCE Eu-W1024 Anti-6×His (Perkin Elmer AD0401), 5 nM streptavidin-d2 (Cisbio 610SADLA)) was prepared in Assay Buffer, then 4 μL was added to the plate and incubated for 1 hour at room temperature. Plates were read using PerkinElmer EnVision (ex: 320 nm, em1: 665 nm, em2: 615 nm) and em1/em2 data was used to generate curve fits using a 4-parameter logistic model to calculate IC50 values.

[2] = target: GDP-bound KRAS protein (aa 1-169), containing both G12D and C118A amino acid substitutions (Homo sapiens (Human), UniProt P01116, C118A/G12D); assay: KRAS G12D Coupled Nucleotide Exchange Assay; format: biochemical
Method: KRAS G12D Coupled Nucleotide Exchange Assay
Following compound pre-incubation, purified SOS protein (aa 564-1049) and GTP (Roche 10106399001) were added to the assay wells and incubated for an additional 30 min. To determine the extent of inhibition of SOS-mediated nucleotide exchange, purified GST-tagged cRAF (aa 1-149), nickel chelate AlphaLISA acceptor beads (PerkinElmer AL108R), and AlphaScreen glutathione donor beads (PerkinElmer 6765302) were added to the assay wells and incubated for 10 minutes. The assay plates were then read on a PerkinElmer EnVision Multilabel Reader, using AlphaScreen® technology, and data were analyzed using a 4-parameter logistic model to calculate IC50 values.

[3] = read-out: KRAS G12D Binding IC50
[4] = read-out: KRAS G12D Coupled Exchange IC50

His-tagged KRAS G12D protein, sequence (P01116 other isoform, or with tags, fused parts or gaps G12D): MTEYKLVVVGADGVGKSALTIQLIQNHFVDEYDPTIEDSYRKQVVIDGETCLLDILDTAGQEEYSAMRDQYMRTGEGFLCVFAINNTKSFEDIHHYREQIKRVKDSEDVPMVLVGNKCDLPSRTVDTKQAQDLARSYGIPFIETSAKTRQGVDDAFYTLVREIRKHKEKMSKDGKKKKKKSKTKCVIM
GDP-bound KRAS protein (aa 1-169), containing both G12D and C118A amino acid substitutions, sequence (P01116 other isoform, or with tags, fused parts or gaps G12D/C118A): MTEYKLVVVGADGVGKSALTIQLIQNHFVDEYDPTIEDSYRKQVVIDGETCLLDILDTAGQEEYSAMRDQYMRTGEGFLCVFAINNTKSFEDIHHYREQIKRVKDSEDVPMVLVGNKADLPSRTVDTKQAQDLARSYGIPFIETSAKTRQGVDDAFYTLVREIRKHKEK

| Compound | IC50 [1, 3] | IC50 [2, 4] | IC50 ([1]; TR-FRET, read-out: KRAS G12D Binding) | IC50 ([2]; 2 hours compound pre-incubation, read-out: KRAS G12D Coupled Exchange) |
| --- | --- | --- | --- | --- |
| Cc1cc2[nH]ncc2c2c1CC/C=C/CO[C@@H]1CCCN(C1)c1nc(OC[C@@]34CCCN3C[C@H](F)C4)nc3c(F)c-2ncc13 [Example 134] | 0.056 µM | 0.059 µM |  |  |
| O=C1CCCCc2c(Cl)cccc2-c2ncc3c(nc(OC[C@@]45CCCN4C[C@H](F)C5)nc3c2F)N2CCC[C@H](C2)N1 [Example 59, (23R)-15-chloro-28-fluoro-4-(((2R,7aS)-2-fluorotetrahydro-1H-pyrrolo[1,2-a]pyrrol-7a(5H)-yl)methoxy)-1,3,5,9,22-pentaazapentacyclo[21.3.1.1~6,10~.0~2,7~.0~11,16~]octacosa-2,4,6,8,10(28),11,13,15-octaen-21-one] | 0.651 µM | 0.481 µM |  |  |
| C[C@]12CCCN(C1)c1nc(OC[C@@]34CCCN3C[C@H](F)C4)nc3c(F)c(ncc13)-c1cccc3ccc(F)c(c13)CCOC(=O)N2 [Example 78, (15S)-22,31-difluoro-8-(((2R,7aS)-2-fluorotetrahydro-1H-pyrrolo[1,2-a]pyrrol-7a(5H)-yl)methoxy)-15-methyl-18-oxa-3,7,9,11,16-pentaazahexacyclo[19.7.1.1~2,6~.1~11,15~.0~5,10~.0~25,29~]hentriaconta-1(29),2(31),3,5,7,9,21,23,25,27-decaen-17-one] | 3.81 µM | 2.1 µM |  |  |
| O=C1OCCCc2c(Cl)cc3[nH]ncc3c2-c2ncc3c(nc(O[C@@H]4CCOC4)nc3c2F)N2CCOC[C@H](C2)O1 [Example 197, (26S)-18-chloro-32-fluoro-4-((3R)-tetrahydro-3-furanyloxy)-23,25,28-trioxa-1,3,5,9,14,15-hexaazahexacyclo[24.4.1.1~6,10~.0~2,7~.0~11,19~.0~12,16~]dotriaconta-2,4,6,8,10(32),11,13,16,18-nonaen-24-one] | 0.09 µM | 0.105 µM |  |  |
| Cc1cc2[nH]ncc2c2c1[C@@H]1C[C@@H]1CCOC[C@H]1CN(CCO1)c1nc(OC[C@@]34CCCN3C[C@H](F)C4)nc3c(F)c-2ncc13 (single isomer, unassigned) [Example 225] | 9.62 µM | 4.77 µM |  |  |
| Fc1c2ncc3c(nc(OC[C@@]45CCCN4C[C@H](F)C5)nc13)N1CCO[C@@H](COCC[C@H]3C[C@H]3c3c(Cl)cc4[nH]ncc4c3-2)C1 [Example 393, (11R,13R,18R)-9-chloro-31-fluoro-25-(((2R,7aS)-2-fluorotetrahydro-1H-pyrrolo[1,2-a]pyrrol-7a(5H)-yl)methoxy)-16,19-dioxa-5,6,22,24,26,30-hexaazaheptacyclo[25.3.1.1~18,22~.0~2,10~.0~3,7~.0~11,13~.0~23,28~]dotriaconta-1(31),2,4,7,9,23,25,27,29-nonaene] |  |  | 1.81 µM | 1.17 µM |
| COc1nc2c3cnc(c(F)c3n1)-c1cc(O)cc3ccc(F)c(c13)CCCC(=O)N[C@]1(C)CCCN2C1 [Example 6, (15R)-22,31-Difluoro-27-hydroxy-8-methoxy-15-methyl-3,7,9,11,16-pentaazahexacyclo[19.7.1.1˜2,6˜.1˜11,15˜.0˜5,10˜.0˜25,29˜]hentriaconta-1(28),2(31),3,5,7,9,21,23,25(29),26-decaen-17-one bis(2,2,2-trifluoroacetate)] | 0.154 µM | 0.125 µM |  |  |
| CN1C(=O)COCC[C@H]2CCc3cc4[nH]ncc4c(c32)-c2ncc3c(nc(OC[C@@]45CCCN4C[C@H](F)C5)nc3c2F)N2CCC[C@@H]1C2 [Example 278, (15R,22R)-34-fluoro-8-(((2R,7aS)-2-fluorotetrahydro-1H-pyrrolo[1,2-a]pyrrol-7a(5H)-yl)methoxy)-16-methyl-19-oxa-3,7,9,11,16,28,29-heptaazaheptacyclo[20.9.1.1~2,6~.1~11,15~.0~5,10~.0~25,32~.0~27,31~]tetratriaconta-1(31),2(34),3,5,7,9,25(32),26,29-nonaen-17-one] | 19.3 µM | 5.9 µM |  |  |
| Cc1cc2[nH]ncc2c2c1CCCCO[C@@H](C)[C@H]1CN(CCO1)c1nc(OC[C@@]34CCCN3C[C@H](F)C4)nc3c(F)c-2ncc13 [Example 242, (16S,17R)-30-fluoro-24-(((2R,7aS)-2-fluorotetrahydro-1H-pyrrolo[1,2-a]pyrrol-7a(5H)-yl)methoxy)-9,16-dimethyl-15,18-dioxa-5,6,21,23,25,29-hexaazahexacyclo[24.3.1.1~17,21~.0~2,10~.0~3,7~.0~22,27~]hentriaconta-1(30),2,4,7,9,22,24,26,28-nonaene] | 1.14 µM | 1.05 µM |  |  |
| O=C1OCC[C@H]2CCc3cc4[nH]ncc4c(c32)-c2ncc3c(nc(OC[C@@]45CCCN4C[C@H](F)C5)nc3c2F)N2CCOC[C@H](C2)O1 [Example 368, (16S,22R)-34-fluoro-8-(((2R,7aS)-2-fluorotetrahydro-1H-pyrrolo[1,2-a]pyrrol-7a(5H)-yl)methoxy)-14,17,19-trioxa-3,7,9,11,28,29-hexaazaheptacyclo[20.9.1.1~2,6~.1~11,16~.0~5,10~.0~25,32~.0~27,31~]tetratriaconta-1(31),2(34),3,5,7,9,25(32),26,29-nonaen-18-one] | 1.23 µM | 0.783 µM |  |  |
| CN1C(=O)OCCCc2c(Cl)cc3[nH]ncc3c2-c2ncc3c(nc(OC[C@@]45CCCN4C[C@H](F)C5)nc3c2F)N2CCOC[C@@H]1C2 [Example 178, (26S)-18-chloro-32-fluoro-4-(((2R,7aS)-2-fluorotetrahydro-1H-pyrrolo[1,2-a]pyrrol-7a(5H)-yl)methoxy)-25-methyl-23,28-dioxa-1,3,5,9,14,15,25-heptaazahexacyclo[24.4.1.1~6,10~.0~2,7~.0~11,19~.0~12,16~]dotriaconta-2,4,6,8,10(32),11,13,16,18-nonaen-24-one] | 0.079 µM | 0.044 µM |  |  |
| Cc1nc2c3cnc(c(F)c3n1)-c1c(c(C)cc3[nH]ncc13)CCCOC(=O)O[C@@H]1COCCN2C1 [Example 210, (26S)-32-fluoro-4,18-dimethyl-23,25,28-trioxa-1,3,5,9,14,15-hexaazahexacyclo[24.4.1.1~6,10~.0~2,7~.0~11,19~.0~12,16~]dotriaconta-2,4,6,8,10(32),11,13,16,18-nonaen-24-one] | 0.435 µM | 0.431 µM |  |  |
| C[C@@]12CCCN(C1)c1nc(OC[C@@]34CCCN3C[C@H](F)C4)nc3c(F)c(ncc13)-c1cc(O)cc3c1[C@H](CCCC(=O)N2)CCC3 [Example 28, (15R,21S)-31-fluoro-8-(((2R,7aS)-2-fluorotetrahydro-1H-pyrrolo[1,2-a]pyrrol-7a(5H)-yl)methoxy)-27-hydroxy-15-methyl-3,7,9,11,16-pentaazahexacyclo[19.7.1.1˜2,6˜.1˜11,15˜.0˜5,10˜.0˜25,29˜]hentriaconta-1(29),2(31),3,5,7,9,25,27-octaen-17-one 2,2,2-trifluoroacetate salt] | 0.068 µM | 0.048 µM |  |  |
| CN1CCC[C@H]1COc1nc2c3cnc(c(F)c3n1)-c1c(c(Cl)cc3[nH]ncc13)CCCOC(=O)O[C@@]1(C)COCCN2C1 [Example 180, (26R)-18-chloro-32-fluoro-26-methyl-4-(((2S)-1-methyl-2-pyrrolidinyl)methoxy)-23,25,28-trioxa-1,3,5,9,14,15-hexaazahexacyclo[24.4.1.1~6,10~.0~2,7~.0~11,19~.0~12,16~]dotriaconta-2,4,6,8,10(32),11,13,16,18-nonaen-24-one] | 1.51 µM | 0.689 µM |  |  |
| [2H]C([2H])([2H])[C@]12COCCN(C1)c1nc(OC[C@@]34CCCN3C[C@H](F)C4)nc3c(F)c(ncc13)-c1c(c(C)cc3[nH]ncc13)CCCOC(=O)O2 [Example 351, (26R)-32-fluoro-4-(((2R,7aS)-2-fluorotetrahydro-1H-pyrrolo[1,2-a]pyrrol-7a(5H)-yl)methoxy)-18-methyl-26-(~2~H_3_)methyl-23,25,28-trioxa-1,3,5,9,14,15-hexaazahexacyclo[24.4.1.1~6,10~.0~2,7~.0~11,19~.0~12,16~]dotriaconta-2,4,6,8,10(32),11,13,16,18-nonaen-24-one] |  | 0.149 µM |  |  |
| [2H]C([2H])([2H])[C@]12COCCN(C1)c1nc(OC[C@@]34CCCN3C[C@H](F)C4)nc3c(F)c(ncc13)-c1c(c(Cl)cc3[nH]ncc13)CCCOC(=O)O2 [Example 354, (26R)-18-chloro-32-fluoro-4-(((2R,7aS)-2-fluorotetrahydro-1H-pyrrolo[1,2-a]pyrrol-7a(5H)-yl)methoxy)-26-(~2~H_3_)methyl-23,25,28-trioxa-1,3,5,9,14,15-hexaazahexacyclo[24.4.1.1~6,10~.0~2,7~.0~11,19~.0~12,16~]dotriaconta-2,4,6(32),7,9,11,13,16,18-nonaen-24-one] |  | 0.531 µM |  |  |

From patent US20240294551A1 (AMGEN INC., priority 2022, published 2024)
